Values of other authors as cited in US5993851A, “Method for preparing biphasic multilamellar lipid vesicles” (PharmaDerm Laboratories, Ltd., priority 1998, dated 1999).

Tested on: genital warts

## interferon alpha
In vivo
  Clinical outcome in words: fairly successful
Systemic application (i.m. injection), genital warts
  side effects: fever, myalgias, headache, nausea, fatigue
